According to the supplement of paper PMC7840683:
± gives the standard deviation of the averaged measurements.

System: HepaRG
Experiment: LDH release cytotoxicity, % of total lysis control; higher = more cytotoxic
Conditions: 48 h
Procedure, shortened: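 Percent cytotoxicity was scaled between on-plate vehicle and total lysis controls, then averaged over duplicate wells. The cells were single-lot HepaRG on collagen I-coated 96-well plates, exposed for 48 h to eight-point half-log test chemical series topping at 100 µM in serum-free induction medium with 0.5% DMSO. Total lysis wells got 0.1% Triton X, and LDH in 50 µL spent medium was read as resorufin fluorescence (CytoTox-ONE, Tecan Safire).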

## CCCCOCN(C(=O)CCl)c1c(CC)cccc1CC [Butachlor]
0.03162 µM
  LDH release cytotoxicity: 0.674 ± 1.6%
0.1 µM
  LDH release cytotoxicity: -0.43 ± 0.44%
0.3162278 µM
  LDH release cytotoxicity: -0.96 ± 0.72%
1 µM
  LDH release cytotoxicity: -0.4246 ± 0.0032%
3.16228 µM
  LDH release cytotoxicity: -0.143 ± 1.2%
10 µM
  LDH release cytotoxicity: 0.287 ± 2.1%
31.6228 µM
  LDH release cytotoxicity: 0.713 ± 0.79%
100 µM
  LDH release cytotoxicity: 2.96 ± 1.9%

## CC1(C)CC(N=C=O)CC(C)(CN=C=O)C1 (configuration not stated) [Isophorone diisocyanate]
0.03162 µM
  LDH release cytotoxicity: -2.14 ± 0.59%
0.1 µM
  LDH release cytotoxicity: -2.6 ± 0.31%
0.3162278 µM
  LDH release cytotoxicity: -2.25 ± 1.1%
1 µM
  LDH release cytotoxicity: -2.1 ± 0.37%
3.16228 µM
  LDH release cytotoxicity: -1.35 ± 0.43%
10 µM
  LDH release cytotoxicity: -1.724 ± 0.015%
31.6228 µM
  LDH release cytotoxicity: -2.21 ± 0.73%
100 µM
  LDH release cytotoxicity: 0.405 ± 0.69%

## CCCCN(CCCC)SN(C)C(=O)Oc1cccc2c1OC(C)(C)C2 [Carbosulfan]
0.03162 µM
  LDH release cytotoxicity: -3.56 ± 2.3%
0.1 µM
  LDH release cytotoxicity: -0.722 ± 0.37%
0.3162278 µM
  LDH release cytotoxicity: -0.938 ± 0.067%
1 µM
  LDH release cytotoxicity: -0.712 ± 0.067%
3.16228 µM
  LDH release cytotoxicity: 0.429 ± 0.12%
10 µM
  LDH release cytotoxicity: 0.717 ± 0.68%
31.6228 µM
  LDH release cytotoxicity: -0.247 ± 0.45%
100 µM
  LDH release cytotoxicity: 0.466 ± 0.2%

## CNC(=O)Oc1cccc2c1OC(C)(C)C2 [Carbofuran]
0.03162 µM
  LDH release cytotoxicity: -0.0403 ± 0.34%
0.1 µM
  LDH release cytotoxicity: -0.693 ± 0.36%
0.3162278 µM
  LDH release cytotoxicity: -0.49 ± 1.3%
1 µM
  LDH release cytotoxicity: -0.23 ± 0.93%
3.16228 µM
  LDH release cytotoxicity: -0.812 ± 0.2%
10 µM
  LDH release cytotoxicity: -1.07 ± 0.049%
31.6228 µM
  LDH release cytotoxicity: -0.52 ± 0.15%
100 µM
  LDH release cytotoxicity: 0.343 ± 0.33%

## Cc1nn(-c2cc(NS(C)(=O)=O)c(Cl)cc2Cl)c(=O)n1C(F)F [Sulfentrazone]
0.03162 µM
  LDH release cytotoxicity: -1.66 ± 0.5%
0.1 µM
  LDH release cytotoxicity: -1.99 ± 0.051%
0.3162278 µM
  LDH release cytotoxicity: -2.52 ± 0.25%
1 µM
  LDH release cytotoxicity: -2.37 ± 0.49%
3.16228 µM
  LDH release cytotoxicity: -0.982 ± 0.51%
10 µM
  LDH release cytotoxicity: -1.17 ± 0.24%
31.6228 µM
  LDH release cytotoxicity: -1.23 ± 0.51%
100 µM
  LDH release cytotoxicity: 0.713 ± 0.36%

## Cc1oc(-c2ccccc2)nc1CCOc1ccc(CC(Nc2ccccc2C(=O)c2ccccc2)C(=O)O)cc1 (configuration not stated) [Farglitazar]
0.03162 µM
  LDH release cytotoxicity: -1.27 ± 0.032%
0.1 µM
  LDH release cytotoxicity: -1.73 ± 1.1%
0.3162278 µM
  LDH release cytotoxicity: -0.126 ± 0.81%
1 µM
  LDH release cytotoxicity: -1.05 ± 1.1%
3.16228 µM
  LDH release cytotoxicity: -2.03 ± 0.091%
10 µM
  LDH release cytotoxicity: -1.81 ± 0.25%
31.6228 µM
  LDH release cytotoxicity: 67.1 ± 9.7%
100 µM
  LDH release cytotoxicity: 78.6 ± 1.2%

## ClCC(Cl)CCl [1,2,3-Trichloropropane]
0.03162 µM
  LDH release cytotoxicity: -1.72 ± 1.1%
0.1 µM
  LDH release cytotoxicity: -1.57 ± 0.41%
0.3162278 µM
  LDH release cytotoxicity: -1.6 ± 0.79%
1 µM
  LDH release cytotoxicity: -0.683 ± 0.4%
3.16228 µM
  LDH release cytotoxicity: -0.233 ± 1.1%
10 µM
  LDH release cytotoxicity: -1.91 ± 0.066%
31.6228 µM
  LDH release cytotoxicity: -1.01 ± 0.093%
100 µM
  LDH release cytotoxicity: 0.236 ± 0.36%

## CC(C)=CCC/C(C)=C/CO [Geraniol]
0.03162 µM
  LDH release cytotoxicity: -2.2 ± 0.9%
0.1 µM
  LDH release cytotoxicity: -2.89 ± 0.23%
0.3162278 µM
  LDH release cytotoxicity: -2.68 ± 0.32%
1 µM
  LDH release cytotoxicity: -2.72 ± 0.9%
3.16228 µM
  LDH release cytotoxicity: -2.26 ± 0.81%
10 µM
  LDH release cytotoxicity: -1.87 ± 0.88%
31.6228 µM
  LDH release cytotoxicity: -1.12 ± 0.87%
100 µM
  LDH release cytotoxicity: -0.773 ± 0.42%

## CCN(Cc1cccnc1)C(=O)c1cccc(Cl)c1C1(C)C(=O)N(Cc2ccc(OC)cc2OC)c2ccc(Cl)cc21 (configuration not stated)
0.02988 µM
  LDH release cytotoxicity: -0.884 ± 0.23%
0.0945 µM
  LDH release cytotoxicity: -1.62 ± 0.57%
0.298835 µM
  LDH release cytotoxicity: -1.35 ± 0.017%
0.945 µM
  LDH release cytotoxicity: -1.68 ± 0.046%
2.98835 µM
  LDH release cytotoxicity: -2.31 ± 0.18%
9.45 µM
  LDH release cytotoxicity: 1.33 ± 0.092%
29.8835 µM
  LDH release cytotoxicity: 7.13 ± 1.4%
94.5 µM
  LDH release cytotoxicity: 11.6 ± 0.98%

## CCCCCCCCCCCCc1ccccc1S(=O)(=O)O [Sodium dodecylbenzenesulfonate]
0.03162 µM
  LDH release cytotoxicity: -1.64 ± 0.19%
0.1 µM
  LDH release cytotoxicity: -2.37 ± 0.1%
0.3162278 µM
  LDH release cytotoxicity: -2.11 ± 0.97%
1 µM
  LDH release cytotoxicity: -2.14 ± 0.36%
3.16228 µM
  LDH release cytotoxicity: -1.89 ± 0.21%
10 µM
  LDH release cytotoxicity: -2.56 ± 1.3%
31.6228 µM
  LDH release cytotoxicity: -1.08 ± 0.42%
100 µM
  LDH release cytotoxicity: 49.9 ± 3.5%

## CCC1(c2ccccc2)C(=O)N=C(O)NC1=O (configuration not stated) [Phenobarbital sodium]
0.03162 µM
  LDH release cytotoxicity: -1.03 ± 0.11%
0.1 µM
  LDH release cytotoxicity: -0.9 ± 0.78%
0.3162278 µM
  LDH release cytotoxicity: -1.41 ± 0.58%
1 µM
  LDH release cytotoxicity: -0.43 ± 0.71%
3.16228 µM
  LDH release cytotoxicity: -0.289 ± 0.44%
10 µM
  LDH release cytotoxicity: -0.0423 ± 0.88%
31.6228 µM
  LDH release cytotoxicity: 0.694 ± 0.48%
100 µM
  LDH release cytotoxicity: 1.83 ± 0.84%

## CC1C(c2ccc(Cl)cc2)SC(=O)N1C(=O)NC1CCCCC1 (configuration not stated) [Hexythiazox]
0.03162 µM
  LDH release cytotoxicity: -0.985 ± 0.63%
0.1 µM
  LDH release cytotoxicity: -2.1 ± 0.29%
0.3162278 µM
  LDH release cytotoxicity: -1.93 ± 0.23%
1 µM
  LDH release cytotoxicity: -1.79 ± 0.32%
3.16228 µM
  LDH release cytotoxicity: -1.86 ± 0.39%
10 µM
  LDH release cytotoxicity: -2.05 ± 0.75%
31.6228 µM
  LDH release cytotoxicity: 1.36 ± 1.8%
100 µM
  LDH release cytotoxicity: 6.86 ± 1.2%

## Cc1ccc(N)cc1 [4-Methylaniline]
0.03162 µM
  LDH release cytotoxicity: -1.74 ± 0.54%
0.1 µM
  LDH release cytotoxicity: -1.26 ± 0.25%
0.3162278 µM
  LDH release cytotoxicity: -1.71 ± 0.048%
1 µM
  LDH release cytotoxicity: -2.15 ± 0.07%
3.16228 µM
  LDH release cytotoxicity: -1.82 ± 0.86%
10 µM
  LDH release cytotoxicity: -1.12 ± 0.11%
31.6228 µM
  LDH release cytotoxicity: -1.47 ± 0.87%
100 µM
  LDH release cytotoxicity: 0.2 ± 0.81%

## COc1nc(NC(C)C)nc(NC(C)C)n1 [Prometon]
0.03162 µM
  LDH release cytotoxicity: -0.0909 ± 0.068%
0.1 µM
  LDH release cytotoxicity: -0.994 ± 0.017%
0.3162278 µM
  LDH release cytotoxicity: -1.1 ± 0.4%
1 µM
  LDH release cytotoxicity: -1.18 ± 0.78%
3.16228 µM
  LDH release cytotoxicity: -1.26 ± 0.4%
10 µM
  LDH release cytotoxicity: -1.06 ± 0.7%
31.6228 µM
  LDH release cytotoxicity: -0.722 ± 0.4%
100 µM
  LDH release cytotoxicity: -0.643 ± 0.89%

## C=CN1CCCC1=O [N-Vinyl-2-pyrrolidone]
0.01581 µM
  LDH release cytotoxicity: -1.31 ± 0.34%
0.05 µM
  LDH release cytotoxicity: -2.25 ± 0.44%
0.1581139 µM
  LDH release cytotoxicity: -2.68 ± 0.3%
0.5 µM
  LDH release cytotoxicity: -2.71 ± 0.27%
1.5811388 µM
  LDH release cytotoxicity: -2.96 ± 0.54%
5 µM
  LDH release cytotoxicity: -2.54 ± 0.67%
15.8114 µM
  LDH release cytotoxicity: -1.96 ± 0.93%
50 µM
  LDH release cytotoxicity: -0.521 ± 0.9%

## OCC(CO)n1cnc(-c2ccc(F)cc2)c1-c1ccnc(Oc2ccccc2)n1
0.029093 µM
  LDH release cytotoxicity: -1.79 ± 1.4%
0.092 µM
  LDH release cytotoxicity: -1.44 ± 0.51%
0.29093 µM
  LDH release cytotoxicity: -0.719 ± 2.1%
0.92 µM
  LDH release cytotoxicity: -1.96 ± 0.076%
2.9092954 µM
  LDH release cytotoxicity: -2.48 ± 0.61%
9.2 µM
  LDH release cytotoxicity: -2.62 ± 0.29%
29.093 µM
  LDH release cytotoxicity: 0.252 ± 0.39%
92 µM
  LDH release cytotoxicity: 51.2 ± 11%

## c1cc2ccc3cccc4ccc(c1)c2c34 [Pyrene]
0.03162 µM
  LDH release cytotoxicity: 0.277 ± 0.94%
0.1 µM
  LDH release cytotoxicity: -1.34 ± 0.14%
0.3162278 µM
  LDH release cytotoxicity: -1.54 ± 0.5%
1 µM
  LDH release cytotoxicity: -0.813 ± 0.25%
3.16228 µM
  LDH release cytotoxicity: -0.783 ± 0.011%
10 µM
  LDH release cytotoxicity: -0.0329 ± 0.0016%
31.6228 µM
  LDH release cytotoxicity: -0.764 ± 0.4%
100 µM
  LDH release cytotoxicity: -0.178 ± 0.085%

## c1ccc2ccccc2c1 [Naphthalene]
0.03162 µM
  LDH release cytotoxicity: -0.307 ± 0.6%
0.1 µM
  LDH release cytotoxicity: -1.13 ± 0.077%
0.3162278 µM
  LDH release cytotoxicity: -0.248 ± 0.12%
1 µM
  LDH release cytotoxicity: -0.532 ± 0.32%
3.16228 µM
  LDH release cytotoxicity: 0.237 ± 0.93%
10 µM
  LDH release cytotoxicity: 1.23 ± 1%
31.6228 µM
  LDH release cytotoxicity: 0.531 ± 0.68%
100 µM
  LDH release cytotoxicity: 2.74 ± 0.9%

## Cc1ccccc1Cl [2-Chlorotoluene]
0.03162 µM
  LDH release cytotoxicity: -1.99 ± 0.36%
0.1 µM
  LDH release cytotoxicity: -1.94 ± 0.73%
0.3162278 µM
  LDH release cytotoxicity: -2.27 ± 0.5%
1 µM
  LDH release cytotoxicity: -1.84 ± 0.56%
3.16228 µM
  LDH release cytotoxicity: -2.6 ± 0.59%
10 µM
  LDH release cytotoxicity: -1.26 ± 0.43%
31.6228 µM
  LDH release cytotoxicity: -0.387 ± 0.48%
100 µM
  LDH release cytotoxicity: 0.838 ± 0.49%
